The values below come from ChEMBL document CHEMBL3860098, “Sulfamide as Zinc Binding Motif in Small Molecule Inhibitors of Activated Thrombin Activatable Fibrinolysis Inhibitor (TAFIa)” (J Med Chem, 2016).

For data set [1], the target named is T1, Carboxypeptidase B2 (Homo sapiens, UniProt Q96IY4).
T1 sequence (Q96IY4 whole entry): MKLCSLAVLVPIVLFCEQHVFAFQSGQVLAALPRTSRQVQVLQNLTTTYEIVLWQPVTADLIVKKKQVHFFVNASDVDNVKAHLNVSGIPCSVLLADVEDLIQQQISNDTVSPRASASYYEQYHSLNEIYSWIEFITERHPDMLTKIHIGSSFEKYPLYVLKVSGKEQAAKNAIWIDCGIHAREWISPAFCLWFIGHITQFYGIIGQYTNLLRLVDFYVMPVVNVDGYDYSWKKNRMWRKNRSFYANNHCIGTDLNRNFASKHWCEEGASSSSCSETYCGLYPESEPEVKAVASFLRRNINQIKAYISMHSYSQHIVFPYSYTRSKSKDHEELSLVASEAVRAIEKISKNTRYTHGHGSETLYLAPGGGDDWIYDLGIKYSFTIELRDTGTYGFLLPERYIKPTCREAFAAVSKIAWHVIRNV
Description: Inhibition of activated human plasma TAFI incubated for 15 mins by chromogenic assay

A short description of data set [2]: Terminal half life in Sprague-Dawley rat at 1 mg/kg, iv administered as bolus dose measured up to 24 hrs. The format is ADME, organism-based. The conditions noted are these: in vivo, read-out: beta t1/2 (converted).
Data set [3] can be described thus: Initial plasma concentration in Sprague-Dawley rat at 1 mg/kg, iv administered as bolus dose measured up to 4 hrs. The format is ADME, organism-based.
A short description of data set [4]: Clearance in Sprague-Dawley rat at 1 mg/kg, iv administered as bolus dose measured up to 24 hrs. Particulars: in vivo. The format is ADME, organism-based.
The nature of data set [5]: Volume distribution at steady state in Sprague-Dawley rat at 1 mg/kg, iv administered as bolus dose measured up to 24 hrs. The format is ADME, organism-based. The conditions noted are these: in vivo, read-out: Vdss.
A short description of data set [6]: Drug excretion in Sprague-Dawley rat urine at 1 mg/kg, iv administered as bolus dose after 24 hrs. The format is ADME, organism-based. The conditions noted are these: read-out: Drug excretion.
Data set [7] has as its target Prothrombin (Homo sapiens) (UniProt P00734). Kind of data set: Inhibition of factor 2a (unknown origin) at 100 uM relative to control.
Data set [8] deals with T2, Coagulation factor VII (Homo sapiens) (UniProt P08709).
T2 sequence (whole entry): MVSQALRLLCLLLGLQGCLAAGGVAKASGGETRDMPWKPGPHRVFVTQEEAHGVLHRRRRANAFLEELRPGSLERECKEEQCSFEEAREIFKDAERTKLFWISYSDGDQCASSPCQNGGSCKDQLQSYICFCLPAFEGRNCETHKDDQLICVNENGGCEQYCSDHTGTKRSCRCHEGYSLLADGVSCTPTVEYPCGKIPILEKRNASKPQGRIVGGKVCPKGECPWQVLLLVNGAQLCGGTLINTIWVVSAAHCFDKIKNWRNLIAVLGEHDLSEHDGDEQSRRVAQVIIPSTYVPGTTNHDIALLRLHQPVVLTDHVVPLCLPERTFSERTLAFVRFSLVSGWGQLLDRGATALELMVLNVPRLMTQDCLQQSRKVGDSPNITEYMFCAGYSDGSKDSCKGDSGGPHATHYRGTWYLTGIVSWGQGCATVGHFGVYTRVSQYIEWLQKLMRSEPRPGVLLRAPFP
The data set can be described thus: Inhibition of factor 7a (unknown origin) at 100 uM relative to control.

Data set [9] concerns the target Coagulation factor X (Homo sapiens) (UniProt P00742). The data set can be described thus: Inhibition of factor 10a (unknown origin) at 100 uM relative to control.
The target of data set [10] is Coagulation factor XI (Homo sapiens) (UniProt P03951). Kind of data set: Inhibition of factor 11a (unknown origin) at 100 uM relative to control.
The target in data set [11] is T3, Coagulation factor XII (Homo sapiens) (UniProt P00748).
T3 sequence (whole entry): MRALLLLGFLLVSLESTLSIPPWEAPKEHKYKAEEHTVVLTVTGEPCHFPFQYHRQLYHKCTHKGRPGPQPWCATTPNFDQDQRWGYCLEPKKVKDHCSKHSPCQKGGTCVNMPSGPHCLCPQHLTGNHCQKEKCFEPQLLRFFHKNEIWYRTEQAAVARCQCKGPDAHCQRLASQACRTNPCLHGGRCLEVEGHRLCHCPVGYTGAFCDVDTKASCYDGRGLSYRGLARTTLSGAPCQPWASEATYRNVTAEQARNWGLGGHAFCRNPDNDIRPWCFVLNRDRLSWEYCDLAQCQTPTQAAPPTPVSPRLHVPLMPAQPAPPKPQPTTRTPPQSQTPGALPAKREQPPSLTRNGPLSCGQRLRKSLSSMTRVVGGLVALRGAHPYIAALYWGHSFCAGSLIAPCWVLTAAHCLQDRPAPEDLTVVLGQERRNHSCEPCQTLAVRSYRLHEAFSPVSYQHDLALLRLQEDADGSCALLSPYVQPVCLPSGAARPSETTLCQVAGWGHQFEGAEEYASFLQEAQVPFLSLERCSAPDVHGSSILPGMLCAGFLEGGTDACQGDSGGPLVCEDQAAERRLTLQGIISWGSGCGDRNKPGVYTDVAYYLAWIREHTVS
The data set can be described thus: Inhibition of factor 12a (unknown origin) at 100 uM relative to control.

Data set [12] addresses Urokinase-type plasminogen activator (Homo sapiens) (UniProt P00749). Kind of data set: Inhibition of urokinase (unknown origin) at 100 uM relative to control.
In data set [13] the target is T4, Complement C1s subcomponent (Homo sapiens) (UniProt P09871).
T4 sequence (whole entry): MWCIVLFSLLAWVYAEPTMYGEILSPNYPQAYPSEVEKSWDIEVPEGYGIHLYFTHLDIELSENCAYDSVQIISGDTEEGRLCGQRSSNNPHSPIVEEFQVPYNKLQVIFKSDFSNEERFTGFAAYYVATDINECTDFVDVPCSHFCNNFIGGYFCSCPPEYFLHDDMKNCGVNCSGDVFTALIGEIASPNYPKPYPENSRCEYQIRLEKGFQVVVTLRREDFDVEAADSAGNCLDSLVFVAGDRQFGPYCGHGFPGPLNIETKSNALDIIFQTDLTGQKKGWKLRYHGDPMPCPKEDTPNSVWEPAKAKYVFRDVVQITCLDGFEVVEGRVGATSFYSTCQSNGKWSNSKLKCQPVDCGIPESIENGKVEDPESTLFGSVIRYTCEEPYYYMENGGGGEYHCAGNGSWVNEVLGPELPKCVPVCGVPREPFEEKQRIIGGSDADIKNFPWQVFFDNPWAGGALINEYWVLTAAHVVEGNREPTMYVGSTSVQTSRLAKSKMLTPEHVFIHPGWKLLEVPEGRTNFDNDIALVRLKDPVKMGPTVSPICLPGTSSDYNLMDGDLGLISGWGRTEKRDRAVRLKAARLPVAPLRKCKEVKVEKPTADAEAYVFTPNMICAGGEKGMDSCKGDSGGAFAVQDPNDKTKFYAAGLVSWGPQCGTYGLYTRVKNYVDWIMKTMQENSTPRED
Kind of data set: Inhibition of C1s (unknown origin) at 100 uM relative to control.

For data set [14], the target named is Tissue-type plasminogen activator (Homo sapiens) (UniProt P00750). The data set can be described thus: Inhibition of tPA (unknown origin) at 100 uM relative to control.
The species entered for data set [15] is Homo sapiens. The data set can be described thus: Inhibition of tryptase (unknown origin) at 100 uM relative to control.
For data set [16], the species on record is Homo sapiens. The data set can be described thus: Inhibition of trypsin (unknown origin) at 100 uM relative to control.
For data set [17], the target named is Plasminogen (Homo sapiens) (UniProt P00747). The data set can be described thus: Inhibition of plasmin (unknown origin) at 100 uM relative to control.
For data set [18], the target named is Plasma kallikrein (Homo sapiens) (UniProt P03952). Particulars: 100 uM.
Description: Inhibition of KLKB1 (unknown origin) at 100 uM relative to control

pIC50: −log10 of the molar value.

Chain of Plasminogen (Homo sapiens) (P00747 97-580 limits assumed): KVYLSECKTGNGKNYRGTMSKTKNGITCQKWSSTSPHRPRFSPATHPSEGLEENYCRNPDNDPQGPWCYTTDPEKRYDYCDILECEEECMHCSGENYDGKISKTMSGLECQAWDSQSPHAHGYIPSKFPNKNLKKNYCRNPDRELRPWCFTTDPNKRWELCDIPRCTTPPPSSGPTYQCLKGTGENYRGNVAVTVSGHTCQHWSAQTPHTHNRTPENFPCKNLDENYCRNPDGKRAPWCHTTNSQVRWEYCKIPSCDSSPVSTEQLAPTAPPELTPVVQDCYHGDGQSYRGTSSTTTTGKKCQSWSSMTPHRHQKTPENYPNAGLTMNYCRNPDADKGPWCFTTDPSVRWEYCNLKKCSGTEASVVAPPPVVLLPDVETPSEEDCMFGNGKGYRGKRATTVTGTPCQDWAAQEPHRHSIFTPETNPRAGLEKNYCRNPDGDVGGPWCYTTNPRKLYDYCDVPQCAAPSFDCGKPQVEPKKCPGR
Chain of Plasminogen (Homo sapiens) (P00747 581-810 limits assumed): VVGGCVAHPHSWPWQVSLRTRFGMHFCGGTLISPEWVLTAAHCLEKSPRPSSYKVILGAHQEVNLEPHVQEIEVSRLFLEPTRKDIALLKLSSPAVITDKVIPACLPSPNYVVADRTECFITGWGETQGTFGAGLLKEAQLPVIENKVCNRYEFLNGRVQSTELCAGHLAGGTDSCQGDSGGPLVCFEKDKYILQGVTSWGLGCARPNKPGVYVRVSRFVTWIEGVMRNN
Chain of Coagulation factor X (Homo sapiens) (P00742 41-179 limits assumed): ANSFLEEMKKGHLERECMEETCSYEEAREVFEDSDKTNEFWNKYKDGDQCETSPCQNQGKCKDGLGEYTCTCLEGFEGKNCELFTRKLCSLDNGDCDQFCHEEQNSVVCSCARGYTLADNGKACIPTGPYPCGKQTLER
Chain of Coagulation factor X (Homo sapiens) (P00742 235-488 limits assumed): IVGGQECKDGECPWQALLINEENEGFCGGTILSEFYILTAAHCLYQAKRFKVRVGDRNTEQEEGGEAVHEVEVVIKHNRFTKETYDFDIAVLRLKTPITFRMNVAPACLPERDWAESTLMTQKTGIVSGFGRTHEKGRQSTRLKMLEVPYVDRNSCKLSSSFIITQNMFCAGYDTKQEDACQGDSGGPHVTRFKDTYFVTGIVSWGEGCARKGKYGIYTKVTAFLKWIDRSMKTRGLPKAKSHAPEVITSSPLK
Chain of Tissue-type plasminogen activator (Homo sapiens) (P00750 36-562 limits assumed): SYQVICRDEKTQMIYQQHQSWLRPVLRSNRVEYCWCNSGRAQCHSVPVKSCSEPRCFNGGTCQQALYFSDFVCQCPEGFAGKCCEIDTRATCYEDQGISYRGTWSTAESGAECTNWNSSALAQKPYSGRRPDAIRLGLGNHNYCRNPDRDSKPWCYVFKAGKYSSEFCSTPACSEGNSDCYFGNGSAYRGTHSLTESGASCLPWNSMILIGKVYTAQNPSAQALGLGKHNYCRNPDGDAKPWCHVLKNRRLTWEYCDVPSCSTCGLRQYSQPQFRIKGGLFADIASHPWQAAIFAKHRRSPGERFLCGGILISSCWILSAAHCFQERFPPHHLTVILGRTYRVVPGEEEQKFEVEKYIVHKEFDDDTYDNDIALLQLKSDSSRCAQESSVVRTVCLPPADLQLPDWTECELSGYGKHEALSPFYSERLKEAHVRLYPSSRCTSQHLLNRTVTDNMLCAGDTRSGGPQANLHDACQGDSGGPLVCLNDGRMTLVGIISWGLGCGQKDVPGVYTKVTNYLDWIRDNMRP
Chain of Plasma kallikrein (Homo sapiens) (P03952 20-390 limits assumed): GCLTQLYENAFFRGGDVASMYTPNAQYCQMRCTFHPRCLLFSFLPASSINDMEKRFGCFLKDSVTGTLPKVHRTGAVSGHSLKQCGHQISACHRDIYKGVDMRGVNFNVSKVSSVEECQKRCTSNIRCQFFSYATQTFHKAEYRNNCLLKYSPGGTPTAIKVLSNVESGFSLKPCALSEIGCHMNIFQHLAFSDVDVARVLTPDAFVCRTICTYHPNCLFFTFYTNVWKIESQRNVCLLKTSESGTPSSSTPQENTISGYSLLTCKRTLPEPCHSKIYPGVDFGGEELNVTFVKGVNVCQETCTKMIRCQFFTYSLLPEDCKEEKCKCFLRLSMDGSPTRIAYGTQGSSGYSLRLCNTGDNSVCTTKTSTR
Chain of Plasma kallikrein (Homo sapiens) (P03952 391-638 limits assumed): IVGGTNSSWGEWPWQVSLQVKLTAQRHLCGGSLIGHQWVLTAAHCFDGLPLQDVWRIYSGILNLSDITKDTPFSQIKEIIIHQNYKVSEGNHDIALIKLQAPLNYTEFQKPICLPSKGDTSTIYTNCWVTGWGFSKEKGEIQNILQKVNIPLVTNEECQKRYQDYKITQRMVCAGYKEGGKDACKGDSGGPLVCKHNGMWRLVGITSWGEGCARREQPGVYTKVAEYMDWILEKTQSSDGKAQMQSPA
Chain of Coagulation factor XI (Homo sapiens) (P03951 19-387 limits assumed): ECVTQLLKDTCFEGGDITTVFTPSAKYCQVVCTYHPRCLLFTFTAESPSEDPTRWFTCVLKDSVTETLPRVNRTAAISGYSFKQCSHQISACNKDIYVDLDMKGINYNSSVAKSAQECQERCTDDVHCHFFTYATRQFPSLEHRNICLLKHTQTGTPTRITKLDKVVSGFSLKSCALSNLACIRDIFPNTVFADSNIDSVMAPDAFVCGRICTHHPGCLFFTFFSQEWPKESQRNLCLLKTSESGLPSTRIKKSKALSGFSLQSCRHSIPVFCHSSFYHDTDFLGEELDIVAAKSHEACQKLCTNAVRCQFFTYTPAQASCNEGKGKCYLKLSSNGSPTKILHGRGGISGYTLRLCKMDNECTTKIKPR
Chain of Coagulation factor XI (Homo sapiens) (P03951 388-625 limits assumed): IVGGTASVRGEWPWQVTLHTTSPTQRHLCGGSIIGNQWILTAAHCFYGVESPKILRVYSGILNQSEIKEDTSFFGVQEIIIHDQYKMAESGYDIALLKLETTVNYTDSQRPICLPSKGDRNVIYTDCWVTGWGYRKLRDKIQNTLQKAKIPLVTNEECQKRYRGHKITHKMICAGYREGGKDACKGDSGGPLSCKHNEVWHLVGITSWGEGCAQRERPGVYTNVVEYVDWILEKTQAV

Consider `CC1(C)[C@@H]2CC[C@@]1(C)[C@@H](NC(=O)[C@H](CC1CCCCC1)NS(=O)(=O)N[C@@H](CC1CCC(N)CC1)C(=O)O)C2` (stereo partly specified), for which, in data set [1], the pIC50 is < 4.52.

As for `CC1(C)[C@@H]2CC[C@@]1(C)[C@@H](NC(=O)[C@H](CC1CCCCC1)NS(=O)(=O)N[C@@H](CCCCO)C(=O)O)C2`, the negative-log IC50 (pIC50) in data set [1] is < 4.52.

Turning to `NCCCC[C@H](NS(=O)(=O)NCC(=O)NC12CC3CC(CC(C3)C1)C2)C(=O)O`, the negative-log IC50 (pIC50) in [1] was < 4.52. As for `CC1(C)[C@@H]2CC[C@@]1(C)[C@@H](NC(=O)[C@H](CC1CCCCC1)NS(=O)(=O)N[C@@H](CCCCN)C(=O)O)C2` [listing 1 of 2 here], the half-life in data set [2] is 1.7 h. The compound also returned a C0 at 4 h in [3] of 3800 ng/mL. The same compound had a clearance in [4] of 11.7 mL/min/kg. Moreover, in data set [5], the Vd amounted to 0.38 L/kg. Besides, in data set [6], the dose excreted at 24 h came out at 4%. As to `CC1(C)[C@@H]2CC[C@@]1(C)[C@@H](NC(=O)[C@@H](NS(=O)(=O)N[C@@H](CCCCN)C(=O)O)C1CCCCC1)C2`, the pIC50 in [1] was 4.33. The same measure, in the same setting: the figure for `CC1(C)[C@@H]2CC[C@@]1(C)[C@@H](NC(=O)[C@H](CC1CCCCC1)NS(=O)(=O)N[C@@H](CCCC(N)=O)C(=O)O)C2` is < 4.52; for `CC(C)(C)NC(=O)[C@H](CC1CCCCC1)NS(=O)(=O)N[C@@H](CCCCN)C(=O)O` it is 5.17.

Regarding `CC1(C)[C@@H]2CC[C@@]1(C)[C@@H](NC(=O)[C@H](CC1CCCCC1)NS(=O)(=O)N[C@@H](CCCCNC(N)=O)C(=O)O)C2`, the pIC50 in data set [1] was < 4.52. On the same count and under the same terms, the figure for `CC1(C)C2CCC1(C)C(OC(=O)[C@H](CC1CCCCC1)NS(=O)(=O)N[C@@H](CCCCN)C(=O)O)C2` (stereo partly specified) is 5.19. For `C[C@H](NS(=O)(=O)N[C@@H](CCCCN)C(=O)O)C(=O)NC12CC3CC(CC(C3)C1)C2`, in [1], the pIC50 was < 4.52. On the same count and under the same terms, then `NCCCC[C@H](NS(N)(=O)=O)C(=O)O`, with 4.82; and `CC1(C)C2CCC1(C)[C@@H](NC(=O)[C@H](CC1CCCCC1)NC(=O)N[C@@H](CCCCN)C(=O)O)C2` (stereo partly specified), with 8.52. Turning to `CC1(C)[C@@H]2CC[C@@]1(C)[C@@H](NC(=O)[C@H](CC1CCCCC1)NS(=O)(=O)N[C@@H](CCCCN)C(=O)O)C2` [listing 2 of 2 here], the inhibition in data set [7], in data set [8], in data set [9], in data set [10], in data set [11] and in data set [12] was < 40% each time. Also, the inhibition in data set [13], in data set [14], in data set [15], in data set [16], in [17] and in data set [18] was < 40% in each case.

`CC(C)[C@H](NS(=O)(=O)N[C@@H](CCCCN)C(=O)O)C(=O)NC12CC3CC(CC(C3)C1)C2`: the pIC50 in data set [1] was < 4.52. Take `NCCCC[C@H](NS(=O)(=O)N[C@H](C(=O)NC12CC3CC(CC(C3)C1)C2)c1ccccc1)C(=O)O`: the pIC50 in [1] is < 4.52. Still for that read-out and setting: then `CC(=O)NCCCC[C@H](NS(=O)(=O)N[C@@H](CC1CCCCC1)C(=O)N[C@H]1C[C@H]2CC[C@]1(C)C2(C)C)C(=O)O`, with < 4.52.
